Test results from BigSolDB 2.1.

Work on `CC(C(=O)O)c1ccc2c(c1)[nH]c1ccc(Cl)cc12` (stereo not given) yielded a solubility (mole fraction) (in acetic acid, 288.15 K) of 0.00687, a solubility (mole fraction) (in acetic acid, 293.15 K) of 0.00706 and a solubility (mole fraction) (in acetic acid, 298.15 K) of 0.00863. It also gave a solubility (mole fraction) (in acetic acid, 303.15 K) of 0.00998, a solubility (mole fraction) (in acetic acid, 308.15 K) of 0.0126 and a solubility (mole fraction) (in acetic acid, 313.15 K) of 0.0174. The solubility (mole fraction) (in acetic acid, 318.15 K) was 0.0216, the solubility (mole fraction) (in acetic acid, 323.15 K) was 0.0268 and the solubility (mole fraction) (in ethylene glycol, 288.15 K) was 0.00349. The solubility (mole fraction) (in ethylene glycol, 293.15 K) was 0.00433, the solubility (mole fraction) (in ethylene glycol, 298.15 K) was 0.00585 and the solubility (mole fraction) (in ethylene glycol, 303.15 K) was 0.00715. The solubility (mole fraction) (in ethylene glycol, 308.15 K) was 0.00861, the solubility (mole fraction) (in ethylene glycol, 313.15 K) was 0.0117 and the solubility (mole fraction) (in ethylene glycol, 318.15 K) was 0.0168. The solubility (mole fraction) (in ethylene glycol, 323.15 K) was 0.0194, the solubility (mole fraction) (in formic acid, 288.15 K) was 0.000435 and the solubility (mole fraction) (in formic acid, 293.15 K) was 0.000547. For the same compound, the solubility (mole fraction) (in formic acid, 298.15 K) was 0.00074, the solubility (mole fraction) (in formic acid, 303.15 K) was 0.00116 and the solubility (mole fraction) (in formic acid, 308.15 K) was 0.00146. It also gave a solubility (mole fraction) (in formic acid, 313.15 K) of 0.00201, a solubility (mole fraction) (in formic acid, 318.15 K) of 0.00287 and a solubility (mole fraction) (in formic acid, 323.15 K) of 0.00388. It also gave a solubility (mole fraction) (in glycerin, 288.15 K) of 0.000115, a solubility (mole fraction) (in glycerin, 293.15 K) of 0.000147 and a solubility (mole fraction) (in glycerin, 298.15 K) of 0.000209. The solubility (mole fraction) (in glycerin, 303.15 K) was 0.000301, the solubility (mole fraction) (in glycerin, 308.15 K) was 0.000437 and the solubility (mole fraction) (in glycerin, 313.15 K) was 0.00052. For the same compound, the solubility (mole fraction) (in glycerin, 318.15 K) was 0.000851, the solubility (mole fraction) (in glycerin, 323.15 K) was 0.00133 and the solubility (mole fraction) (in isobutanol, 288.15 K) was 0.00942. For the same compound, the solubility (mole fraction) (in isobutanol, 293.15 K) was 0.0103, the solubility (mole fraction) (in isobutanol, 298.15 K) was 0.0137 and the solubility (mole fraction) (in isobutanol, 303.15 K) was 0.0177. The solubility (mole fraction) (in isobutanol, 308.15 K) was 0.0243, the solubility (mole fraction) (in isobutanol, 313.15 K) was 0.0287 and the solubility (mole fraction) (in isobutanol, 318.15 K) was 0.0357. For the same compound, the solubility (mole fraction) (in isobutanol, 323.15 K) was 0.0432, the solubility (mole fraction) (in isopropanol, 288.15 K) was 0.0145 and the solubility (mole fraction) (in isopropanol, 293.15 K) was 0.0179. It also gave a solubility (mole fraction) (in isopropanol, 298.15 K) of 0.0267, a solubility (mole fraction) (in isopropanol, 303.15 K) of 0.031 and a solubility (mole fraction) (in isopropanol, 308.15 K) of 0.0359. For the same compound, the solubility (mole fraction) (in isopropanol, 313.15 K) was 0.0436, the solubility (mole fraction) (in isopropanol, 318.15 K) was 0.048 and the solubility (mole fraction) (in isopropanol, 323.15 K) was 0.0601. It also gave a solubility (mole fraction) (in n-butanol, 288.15 K) of 0.014, a solubility (mole fraction) (in n-butanol, 293.15 K) of 0.0174 and a solubility (mole fraction) (in n-butanol, 298.15 K) of 0.0243. It also gave a solubility (mole fraction) (in n-butanol, 303.15 K) of 0.0283, a solubility (mole fraction) (in n-butanol, 308.15 K) of 0.0346 and a solubility (mole fraction) (in n-butanol, 313.15 K) of 0.0389. The solubility (mole fraction) (in n-butanol, 318.15 K) was 0.0441, the solubility (mole fraction) (in n-butanol, 323.15 K) was 0.0526 and the solubility (mole fraction) (in n-octanol, 288.15 K) was 0.0143. It also gave a solubility (mole fraction) (in n-octanol, 293.15 K) of 0.0177, a solubility (mole fraction) (in n-octanol, 298.15 K) of 0.0248 and a solubility (mole fraction) (in n-octanol, 303.15 K) of 0.0295. For the same compound, the solubility (mole fraction) (in n-octanol, 308.15 K) was 0.035, the solubility (mole fraction) (in n-octanol, 313.15 K) was 0.0391 and the solubility (mole fraction) (in n-octanol, 318.15 K) was 0.0448. For the same compound, the solubility (mole fraction) (in n-octanol, 323.15 K) was 0.0537, the solubility (mole fraction) (in n-propanol, 288.15 K) was 0.0157 and the solubility (mole fraction) (in n-propanol, 293.15 K) was 0.0195. For the same compound, the solubility (mole fraction) (in n-propanol, 298.15 K) was 0.0315, the solubility (mole fraction) (in n-propanol, 303.15 K) was 0.0378 and the solubility (mole fraction) (in n-propanol, 308.15 K) was 0.0418. The solubility (mole fraction) (in n-propanol, 313.15 K) was 0.0507, the solubility (mole fraction) (in n-propanol, 318.15 K) was 0.0598 and the solubility (mole fraction) (in n-propanol, 323.15 K) was 0.0743. For the same compound, the solubility (mole fraction) (in propylene glycol, 288.15 K) was 0.0055, the solubility (mole fraction) (in propylene glycol, 293.15 K) was 0.0069 and the solubility (mole fraction) (in propylene glycol, 298.15 K) was 0.00753. It also gave a solubility (mole fraction) (in propylene glycol, 303.15 K) of 0.00936, a solubility (mole fraction) (in propylene glycol, 308.15 K) of 0.0121 and a solubility (mole fraction) (in propylene glycol, 313.15 K) of 0.0153. It also gave a solubility (mole fraction) (in propylene glycol, 318.15 K) of 0.0183 and a solubility (mole fraction) (in propylene glycol, 323.15 K) of 0.0223.
